How the values were obtained:
Assay type in all cases: in vivo
[1] = system: Alopecurus myosuroides (ALOMY); test: Post-emergence glasshouse herbicide test; settings: post-emergence (sprayed after 8 days cultivation), 1000 g/h, evaluated after 13 days, five point scale
Procedure: (§1) Seeds of a variety of test species are sown in standard soil in pots (Alopecurus myosuroides (ALOMY), Setaria faberi (SETFA), Echinochloa crus-galli (ECHCG), Solanum nigrum (SOLNI), Amaranthus retoflexus (AMARE), Ipomoea hederacea (IPOHE)). After cultivation for one day (pre-emergence) or after 8 days cultivation (post-emergence) under controlled conditions in a glasshouse (at 24/16° C., day/night; 14 hours light; 65% humidity), the plants are sprayed with an aqueous spray solution derived from the formulation of the technical active ingredient in acetone/water (50:50) solution containing 0.5% Tween 20 (polyoxyethelyene sorbitan monolaurate, CAS RN 9005-64-5). Compounds are applied at 1000 g/h. The test plants are then grown in a glasshouse under controlled conditions in a glasshouse (at 24/16° C., day/night; 14 hours light; 65% humidity) and watered twice daily. After 13 days for pre and post-emergence, the test is evaluated for the percentage damage caused to the plant. The biological activities are shown in the following table on a five point scale (5=80-100%; 4=60-79%; 3=40-59%; 2=20-39%; 1=0-19%).

[2] = system: Amaranthus retoflexus (AMARE); test: Post-emergence glasshouse herbicide test; settings: post-emergence (sprayed after 8 days cultivation), 1000 g/h, evaluated after 13 days, five point scale
Procedure: as §1

[3] = system: Echinochloa crus-galli (ECHCG); test: Post-emergence glasshouse herbicide test; settings: post-emergence (sprayed after 8 days cultivation), 1000 g/h, evaluated after 13 days, five point scale
Procedure: as §1

[4] = system: Ipomoea hederacea (IPOHE); test: Post-emergence glasshouse herbicide test; settings: post-emergence (sprayed after 8 days cultivation), 1000 g/h, evaluated after 13 days, five point scale
Procedure: as §1

Setaria faberi (SETFA) [5] = test: Post-emergence glasshouse herbicide test; settings: post-emergence (sprayed after 8 days cultivation), 1000 g/h, evaluated after 13 days, five point scale
Procedure: as §1

Solanum nigrum (SOLNI) [6] = test: Post-emergence glasshouse herbicide test; settings: post-emergence (sprayed after 8 days cultivation), 1000 g/h, evaluated after 13 days, five point scale
Procedure: as §1

[7] = system: Alopecurus myosuroides (ALOMY); test: Pre-emergence glasshouse herbicide test; settings: pre-emergence (sprayed after one day cultivation), 1000 g/h, evaluated after 13 days, five point scale
Procedure: as §1

[8] = system: Amaranthus retoflexus (AMARE); test: Pre-emergence glasshouse herbicide test; settings: pre-emergence (sprayed after one day cultivation), 1000 g/h, evaluated after 13 days, five point scale
Procedure: as §1

[9] = system: Echinochloa crus-galli (ECHCG); test: Pre-emergence glasshouse herbicide test; settings: pre-emergence (sprayed after one day cultivation), 1000 g/h, evaluated after 13 days, five point scale
Procedure: as §1

[10] = system: Ipomoea hederacea (IPOHE); test: Pre-emergence glasshouse herbicide test; settings: pre-emergence (sprayed after one day cultivation), 1000 g/h, evaluated after 13 days, five point scale
Procedure: as §1

Setaria faberi (SETFA) [11] = test: Pre-emergence glasshouse herbicide test; settings: pre-emergence (sprayed after one day cultivation), 1000 g/h, evaluated after 13 days, five point scale
Procedure: as §1

Solanum nigrum (SOLNI) [12] = test: Pre-emergence glasshouse herbicide test; settings: pre-emergence (sprayed after one day cultivation), 1000 g/h, evaluated after 13 days, five point scale
Procedure: as §1

SMILES | percentage damage caused to the plant, POST Application ALOMY [1] | percentage damage caused to the plant, POST Application AMARE [2] | percentage damage caused to the plant, POST Application ECHCG [3] | percentage damage caused to the plant, POST Application IPOHE [4] | percentage damage caused to the plant, POST Application SETFA (Setaria faberi (SETFA) [5]) | percentage damage caused to the plant, POST Application SOLNI (Solanum nigrum (SOLNI) [6]) | percentage damage caused to the plant, PRE Application ALOMY [7] | percentage damage caused to the plant, PRE Application AMARE [8] | percentage damage caused to the plant, PRE Application ECHCG [9] | percentage damage caused to the plant, PRE Application IPOHE [10] | percentage damage caused to the plant, PRE Application SETFA (Setaria faberi (SETFA) [11]) | percentage damage caused to the plant, PRE Application SOLNI (Solanum nigrum (SOLNI) [12])
C=C(C)c1cnn(-c2ccc(S(C)(=O)=O)c(C3=NOCC3)c2C)c(=O)c1O [Compound 1.007] | 5 (5=80-100%) | 5 (5=80-100%) | 5 (5=80-100%) | 5 (5=80-100%) | 5 (5=80-100%) | 5 (5=80-100%) | 3 (3=40-59%) | 5 (5=80-100%) | 5 (5=80-100%) | 5 (5=80-100%) | 3 (3=40-59%) | 4 (4=60-79%)
Cc1nc(C(F)(F)F)ccc1-n1ncc([S+](C)[O-])c(O)c1=O (stereo not drawn) [Compound 1.030] | 2 (2=20-39%) | 4 (4=60-79%) | 5 (5=80-100%) | 3 (3=40-59%) | 5 (5=80-100%) | 5 (5=80-100%) | 2 (2=20-39%) | 4 (4=60-79%) | 5 (5=80-100%) | 3 (3=40-59%) | 5 (5=80-100%) | 5 (5=80-100%)
C=C(C)c1cnn(-c2ccc(C(F)(F)F)nc2C)c(=O)c1O [Compound 1.024] | 5 (5=80-100%) | 5 (5=80-100%) | 5 (5=80-100%) | 5 (5=80-100%) | 5 (5=80-100%) | 5 (5=80-100%) | 5 (5=80-100%) | 5 (5=80-100%) | 5 (5=80-100%) | 5 (5=80-100%) | 5 (5=80-100%) | 5 (5=80-100%)
COc1cnn(-c2ccc(C(F)(F)F)cc2C(F)(F)F)c(=O)c1O [Compound 1.014] | 1 (1=0-19%) | 5 (5=80-100%) | 1 (1=0-19%) | 3 (3=40-59%) | 4 (4=60-79%) | 5 (5=80-100%) | 1 (1=0-19%) | 1 (1=0-19%) | 1 (1=0-19%) | 1 (1=0-19%) | 1 (1=0-19%) | 1 (1=0-19%)
Cc1c(-n2ncc(C#N)c(O)c2=O)ccc(S(C)(=O)=O)c1C1=NOCC1 [Compound 1.026] | 1 (1=0-19%) | 5 (5=80-100%) | 5 (5=80-100%) | 5 (5=80-100%) | 5 (5=80-100%) | 5 (5=80-100%) | 1 (1=0-19%) | 5 (5=80-100%) | 5 (5=80-100%) | 5 (5=80-100%) | 5 (5=80-100%) | 5 (5=80-100%)
CSc1cnn(-c2ccc(S(C)(=O)=O)c(C3=NOCC3)c2C)c(=O)c1O [Compound 1.018, 2-[3-(4,5-dihydroisoxazol-3-yl)-2-methyl-4-methylsulfonyl-phenyl]-4-hydroxy-5-methylsulfanyl-pyridazin-3-one] | 2 (2=20-39%) | 5 (5=80-100%) | 2 (2=20-39%) | 5 (5=80-100%) | 2 (2=20-39%) | 5 (5=80-100%) | 2 (2=20-39%) | 5 (5=80-100%) | 2 (2=20-39%) | 5 (5=80-100%) | 2 (2=20-39%) | 5 (5=80-100%)
Cc1c(-n2ncc(C#N)c(O)c2=O)ccc(S(C)(=O)=O)c1C1=NOCC1 [Compound 1.009] | 1 (1=0-19%) | 5 (5=80-100%) | 5 (5=80-100%) | 5 (5=80-100%) | 5 (5=80-100%) | 5 (5=80-100%) | 1 (1=0-19%) | 5 (5=80-100%) | 5 (5=80-100%) | 4 (4=60-79%) | 4 (4=60-79%) | 4 (4=60-79%)
